This is an account of results in US20090030024A1, “THIAZOLES AS FUNGICIDES” (priority 2005, published 2009).

Structures are written as SMILES. Marks after values point to notes of the source that are not given here.

In general, chromatographic logP refers to a lipophilicity value derived from retention on a column.

The first data set can be described thus: logP determination by retention times (calibration with alkan-2-ones).
Conditions: not given
For `Cc1nc(C2CCCCC2)sc1-c1ccnc(Nc2ccccc2)n1` [Example 219, 4-(2-cyclohexyl-4-methyl-1,3-thiazol-5-yl)-N-phenylpyrimidine-2-amine], the chromatographic logP amounted to 4.65.

For the compound `CCc1nc(C)c(-c2ccnc(Nc3cccc(OC)c3)n2)s1` [Example 236, 4-(2-ethyl-4-methyl-1,3-thiazol-5-yl)-N-(3-methoxyphenyl)pyrimidine-2-amine], the chromatographic logP worked out at 3.

The compound `Cc1nc(C2CC2)sc1-c1ccnc(Nc2cccc(C(F)(F)F)c2)n1` [Example 229, 4-(2-cyclopropyl-4-methyl-1,3-thiazol-5-yl)-N-[3-(trifluoromethyl)phenyl]pyrimidine-2-amine] yielded a chromatographic logP of 4.04.

`Cc1nc(NCC2CCCO2)sc1-c1ccnc(Nc2cccc([N+](=O)[O-])c2)n1` (stereo not shown) [Example 355, 4-{4-methyl-2-[(tetrahydrofuran-2-ylmethyl)amino]-1,3-thiazol-5-yl}-N-(3-nitrophenyl)pyrimidine-2-amine]: the chromatographic logP is 2.13.

Compound `Cc1nc(NCC2CCCO2)sc1-c1ccnc(Nc2ccccc2)n1` (stereo not shown) [Example 356, 4-{4-methyl-2-[(tetrahydrofuran-2-ylmethyl)amino]-1,3-thiazol-5-yl}-N-phenylpyrimidine-2-amine] returned a chromatographic logP of 1.87.

In turn, `Cc1nc(C2CCCCC2)sc1-c1ccnc(Nc2cccc(O)c2)n1` [Example 146, 3-{[4-(2-cyclohexyl-4-methyl-1,3-thiazol-5-yl)pyrimidin-2-yl]amino}phenol] registered a chromatographic logP of 3.33.

`CSc1nc(C)c(-c2ccnc(Nc3ccccc3)n2)s1` [Example 318, 4-[4-methyl-2-(methylthio)-1,3-thiazol-5-yl]-N-phenylpyrimidine-2-amine]: the chromatographic logP was 3.34.

`Cc1cc(Nc2nccc(-c3sc(C4CC4)nc3C)n2)ccc1F` [Example 226, 4-(2-cyclopropyl-4-methyl-1,3-thiazol-5-yl)-N-(4-fluoro-3-methylphenyl)pyrimidine-2-amine] showed a chromatographic logP of 3.71.

Take `Cc1nc(N)sc1-c1ccnc(Nc2ccc(O)cc2)n1` [Example 323, 4-{[4-(2-amino-4-methyl-1,3-thiazol-5-yl)pyrimidin-2-yl]amino}phenol]: the chromatographic logP was determined as 0.93.

Staying with this data set, now noted: * HPLC reversed-phase C18, 40° C., mobile phase 0.1% aqueous formic acid and acetonitrile, linear gradient 10% to 95% acetonitrile.
With `CNc1nc(C)c(-c2ccnc(Nc3ccc(OC(C)=O)cc3)n2)s1` [Example 754, 4-({4-[4-methyl-2-(methylamine)-1,3-thiazol-5-yl]pyrimidin-2-yl}amino)phenylacetate], the logP was 1.73*.

Take `CN(C)c1nc(C(F)(F)F)c(-c2ccnc(Nc3cccc(Cl)c3)n2)s1` [Example 695, N-(3-chlorophenyl)-4-[2-(dimethylamine)-4-(trifluoromethyl)-1,3-thiazol-5-yl]pyrimidine-2-amine]: the logP is listed as 4.51*.

For the compound `Cc1nc(N(C)C)sc1-c1ccnc(Nc2cccc(N3CCCC3=O)c2)n1` [Example 782, 1-[3-({4-[2-(dimethylamine)-4-methyl-1,3-thiazol-5-yl]pyrimidin-2-yl}amino)phenyl]pyrrolidin-2-one], the logP is 1.65*.

`CNc1nc(C)c(-c2ccnc(Nc3cccc(NC(C)=O)c3)n2)s1` [Example 684, N-[3-({4-[4-methyl-2-(methylamine)-1,3-thiazol-5-yl]pyrimidin-2-yl}amino)phenyl]acetamide]: the logP was 1.26*.

The data set is the same for the next values; noted with them: HPLC, reversed-phase C 18, EEC Directive 79/831 Annex V.A8; method *: 40° C., 0.1% aqueous formic acid and acetonitrile, linear gradient 10% to 95% acetonitrile.
Take `CC(=O)c1cccc(Nc2nccc(-c3sc(N(C)C)nc3C(F)(F)F)n2)c1` [Example 23, 1-[3-({4-[2-(dimethylamine)-4-(trifluoromethyl)-1,3-thiazol-5-yl]pyrimidin-2-yl}amino)phenyl]ethanone]: the logP was 1.91*.

Still in this data set, the particulars now being: logP, * HPLC reversed-phase C18, 40° C., mobile phase 0.1% aqueous formic acid and acetonitrile, linear gradient 10% to 95% acetonitrile.
Consider `COCCNc1nc(C)c(-c2ccnc(Nc3ccc(C)c([N+](=O)[O-])c3)n2)s1` [Example 806, 4-{2-[(2-methoxyethyl)amino]-4-methyl-1,3-thiazol-5-yl}-N-(4-methyl-3-nitrophenyl)pyrimidine-2-amine], for which the chromatographic logP came to 2.17.

`COC(=O)Nc1ccc(Nc2nccc(-c3sc(C4CC4)nc3C)n2)cc1` [Example 672, methyl-(4-{[4-(2-cyclopropyl-4-methyl-1,3-thiazol-5-yl)pyrimidin-2-yl]amino}phenyl)carbamate] registered a chromatographic logP of 2.51.

For `CCCc1nc(C)c(-c2ccnc(Nc3cccc(C(C)=O)c3)n2)s1` [Example 767, 1-(3-{[4-(4-methyl-2-propyl-1,3-thiazol-5-yl)pyrimidin-2-yl]amino}phenyl)ethanone], the chromatographic logP stood at 3.04.

For the compound `COCCNc1nc(C)c(-c2ccnc(Nc3ccc(C#N)cc3)n2)s1` [Example 807, 4-[(4-{2-[(2-methoxyethyl)amino]-4-methyl-1,3-thiazol-5-yl}pyrimidin-2-yl)amino]benzonitrile], the chromatographic logP is 1.9.

In turn, `Clc1ccc(-c2ncc(-c3ccnc(Nc4ccccc4)n3)s2)cc1` [Example 793, 4-[2-(4-chlorophenyl)-1,3-thiazol-5-yl]-N-phenylpyrimidine-2-amine] came in with a chromatographic logP of 4.85.

For the compound `COCC(C)Nc1nc(C)c(-c2ccnc(Nc3cccc(NC(C)=O)c3)n2)s1` (stereo not shown) [Example 569, N-{3-[(4-{2-[(2-methoxy-1-methylethyl)amino]-4-methyl-1,3-thiazol-5-yl}pyrimidin-2-yl)amino]phenyl}acetamide], the chromatographic logP is 1.47.

For `CCc1nc(C)c(-c2ccnc(Nc3ccc(Cl)cc3Cl)n2)s1` [Example 794, N-(2,4-dichlorophenyl)-4-(2-ethyl-4-methyl-1,3-thiazol-5-yl)pyrimidine-2-amine], the chromatographic logP was found to be 4.9.

As to `COCc1nc(C)c(-c2ccnc(Nc3ccc(CNC(=O)OC(C)(C)C)cc3)n2)s1` [Example 643, tert-butyl-[4-({4-[2-(methoxymethyl)-4-methyl-1,3-thiazol-5-yl]pyrimidin-2-yl}amino)benzyl]carbamate], the chromatographic logP was found to be 2.99.

Compound `COc1cc(N(C(C)=O)c2nccc(-c3sc(C(C)C)nc3C)n2)cc(OC)c1OC` [Example 666, N-[4-(2-isopropyl-4-methyl-1,3-thiazol-5-yl)pyrimidin-2-yl]-N-(3,4,5-trimethoxyphenyl)acetamide] had a chromatographic logP of 2.53.

In the case of `Cc1nc(C2CC2)sc1-c1ccnc(Nc2cccc(CNC(=O)OC(C)(C)C)c2)n1` [Example 624, tert-butyl-(3-{[4-(2-cyclopropyl-4-methyl-1,3-thiazol-5-yl)pyrimidin-2-yl]amino}benzyl)carbamate], the chromatographic logP was determined as 2.87.

The same data set, now with this note: logP, values marked *: HPLC on reversed-phase C 18, 40° C., mobile phase 0.1% aqueous formic acid and acetonitrile, linear gradient 10% to 95% acetonitrile.
For `Cc1nc(C(C)C)sc1-c1nc(Nc2ccccc2)ncc1Br` [Example 904, 5-bromo-4-(2-isopropyl-4-methyl-1,3-thiazol-5-yl)-N-phenylpyrimidine-2-amine], the chromatographic logP is 4.32.

The compound `COc1cc(Nc2ncc(Br)c(-c3sc(C)nc3C)n2)cc(OC)c1OC` [Example 906, 5-bromo-4-(2,4-dimethyl-1,3-thiazol-5-yl)-N-(3,4,5-trimethoxyphenyl)pyrimidine-2-amine] gave a chromatographic logP of 2.85.

`CCc1nc(C)c(-c2nc(Nc3cccc(Cl)c3)ncc2Br)s1` [Example 920, 5-bromo-N-(3-chlorophenyl)-4-(2-ethyl-4-methyl-1,3-thiazol-5-yl)pyrimidine-2-amine] gave a chromatographic logP of 4.36.

Compound `Cc1nc(C(C)(C)C)sc1-c1ccnc(Nc2cccc(Cl)c2)n1` [Example 884, 4-(2-tert-butyl-4-methyl-1,3-thiazol-5-yl)-N-(3-chlorophenyl)pyrimidine-2-amine] displayed a chromatographic logP of 4.82.
